{"source": "patent US20250360167A1", "about": "(Keryx Biopharmaceuticals, Inc., priority 2013, published 2025)", "key": {"[1]": {"system": "Product Of Calcium And Phosphorus", "assay": "Phase 3 trial (Example 1): phosphorus times calcium product", "format": "in vivo, human", "protocol": "Serum phosphorus and calcium were performed at Screening (Visit 0); weekly during the Washout Period after Visit 1 (Week −2); at Visit 4 (Randomization Visit); at Visits 5 (Week 1), 6 (Week 2), 7 (Week 4), 8 (Week 6), 9 (Week 8), 10 (Week 10), 11 (Week 12), 12 (Week 16), 13 (Week 20), 14 (Week 24), 15 (Week 28), 16 (Week 32), 17 (Week 36), 18 (Week 40), 19 (Week 44), 20 (Week 48), and 21 (Week 52) of the 52-week Safety Assessment Period; and at Visits 22 (Week 53), 23 (Week 54), 24 (Week 55) and 25 (Week 56) of the Efficacy Assessment Period.\nThese variables will be analyzed using LOCF methodology. ANCOVA will be employed. The model will include treatment (fixed effect), and Visit-4 baseline (covariate). An analysis using MMRM method will be conducted as a sensitivity analysis. The least square mean estimates of the treatment effects as well as the 2-sided 95% confidence intervals (CI) of the treatment effects will be derived.\n(§1) • 1. Change in serum calcium concentration at Weeks 12, 24, 36, 48, and 52 as compared to baseline (Visit 4). This variable will be analyzed using LOCF methodology. ANCOVA will be employed. The model will include treatment (fixed effect), and baseline (covariate). • 2. Change in ferritin, and TSAT at Weeks 12, 24, 36 and 48 as compared to baseline (Visit 4). This variable will be analyzed using LOCF methodology. ANCOVA will be employed. The model will include treatment (fixed effect), and baseline (covariate). • 3. Change in serum iron and TIBC at Weeks 12, 24, 36, 48, and 52 as compared to baseline (Visit 4). This variable will be analyzed using LOCF methodology. ANCOVA will be employed. The model will include treatment (fixed effect), and baseline (covariate). • 4. Change in Ca x P product at Weeks 12, 24, 36, 48, and 52 as compared to baseline (Visit 4). This variable will be analyzed using LOCF methodology. ANCOVA will be employed. The model will include treatment (fixed effect), and baseline (covariate). • 5. Change in iPTH at Weeks 12, 36, 52, and 56 as compared to baseline (Visit 4). This variable will be analyzed using LOCF methodology. ANCOVA will be employed. The model will include treatment (fixed effect), and baseline (covariate). • 6. Change in serum […], vitamin A, vitamin B-12, vitamin E, vitamin K and folic acid at Weeks 12, 36, and 52 as compared to baseline (Visit 4). This variable will be analyzed using LOCF methodology. ANCOVA will be employed. The model will include treatment (fixed effect), and baseline (covariate). • 7. Change in serum bicarbonate concentration at Weeks 12, 36, and 52 as compared to baseline (Visit 4). This variable will be analyzed using LOCF methodology. ANCOVA will be employed. The model will include treatment (fixed effect), and baseline (covariate). • 8. Change in IV iron intake at Weeks 12, 24, 36, 48, and 52 as compared to baseline (Visit 4). This variable will be analyzed using LOCF methodology. ANCOVA will be employed. The model will include treatment (fixed effect), and baseline (covariate). • 9. Change in the use of EPO (ESA) administered at Weeks 12, 24, 36, 48, and 52 as compared to baseline (Visit 4). This variable will be analyzed using LOCF methodology. ANCOVA will be employed. The model will include treatment (fixed effect), and baseline (covariate). • 10. Change in the use of Vitamin D supplementation (and its analogs) and Sensipar (cinacalcet) at Weeks 12, 24, 36, 48, and 52 as compared to baseline (Visit 4). This variable will be analyzed using LOCF methodology. ANCOVA will be employed. The model will include treatment (fixed effect), and baseline (covariate). • 11. Change in LDL, HDL, and triglycerides at Weeks 12, 36, and 52 as compared to baseline (Visit 4). This variable will be analyzed using LOCF methodology. ANCOVA will be employed. The model will include treatment (fixed effect), and baseline (covariate)."}, "[2]": {"system": "transferrin saturation (TSAT)", "assay": "Phase 3 trial (Example 1): TSAT", "format": "in vivo, human", "design": "TSAT, Mean / TSAT, Median / TSAT, Change from Baseline, Mean / TSAT, Change from Baseline, Median / TSAT, LS Mean / TSAT, Treatment Differences, LS Mean (KRX-0502) − LS Mean (control): unit not given here", "details": "for TSAT, Mean / TSAT, Median / TSAT, LS Mean / TSAT, Change from Baseline, Mean / TSAT, Change from Baseline, Median / TSAT, Treatment Differences, LS Mean (KRX-0502) − LS Mean (control): Table 16", "excerpt": "Iron studies including serum iron, ferritin, TSAT, and total iron-binding capacity were done at Screening (Visit 0); at the Randomization Visit (Visit 4); at Visits 7 (Week 4), 9 (Week 8), 11 (Week 12), 12 (Week 16), 13 (Week 20), 14 (Week 24), 15 (Week 28), 16 (Week 32), 17 (Week 36), 18 (Week 40), 19 (Week 44), 20 (Week 48), and 21 (Week 52) of the 52-week Safety Assessment Period; and at Visit 25 (Week 56) of the Efficacy Assessment Period.\nChange from baseline in TSAT at Week 52 as compared to baseline (Visit 4). This variable will be analyzed using LOCF methodology. ANCOVA will be employed. The model will include treatment (fixed effect), and baseline (covariate). A sensitivity analysis will be performed using MMRM method.\nas §1"}, "[3]": {"details": "Day 0 Baseline, Safety Assessment Period"}}, "data": [{"substance": "iron (+3), x (1, 2, 3-propanetricarboxylic acid, 2-hydroxy-), y (H2O) [KRX-0502]", "values": [{"measurement": "Product Of Calcium And Phosphorus, Mean", "setting": "[1]; Baseline, Table 12", "result": 65.4075}, {"measurement": "Product Of Calcium And Phosphorus, Median", "setting": "[1]; Baseline, Table 12", "result": 62.7000}, {"measurement": "Product Of Calcium And Phosphorus, Week 12 Change from Baseline, Mean", "setting": "[1]; Table 12", "result": "−16.5635"}, {"measurement": "Product Of Calcium And Phosphorus, Week 12 Change from Baseline, Median", "setting": "[1]; Table 12", "result": "−16.7400"}, {"measurement": "Product Of Calcium And Phosphorus, LS Mean", "setting": "[1]; Week 12, ANCOVA, Table 12", "result": 48.97}, {"measurement": "Product Of Calcium And Phosphorus, Mean", "setting": "[1]; Week 12, Table 12", "result": 48.8440}, {"measurement": "Product Of Calcium And Phosphorus, Median", "setting": "[1]; Week 12, Table 12", "result": 47.5000}, {"measurement": "Product Of Calcium And Phosphorus, Treatment Differences, LS Mean (KRX-0502) − LS Mean (Control)", "setting": "[1]; Week 12, control = sevelamer carbonate as a single agent", "result": 1.45}, {"measurement": "Mean TSAT, LS Mean Difference from Active Control Group at Week 52", "setting": "[2]; ANCOVA, Table D", "result": 10, "unit": "%"}, {"measurement": "Mean TSAT", "setting": "[2]; Baseline (Day 0), Table D", "result": 31, "unit": "%"}, {"measurement": "TSAT, Mean", "setting": "[2]; [3]", "result": 31.0}, {"measurement": "TSAT, Median", "setting": "[2]; [3]", "result": 29.5}, {"measurement": "TSAT, LS Mean", "setting": "[2]; Week 12, ANCOVA", "result": 40.17}, {"measurement": "Mean TSAT", "setting": "[2]; Week 12, LOCF, Table D", "result": 40, "unit": "%"}, {"measurement": "TSAT, Change from Baseline, Mean", "setting": "[2]; Week 12", "result": 9.2}, {"measurement": "TSAT, Change from Baseline, Median", "setting": "[2]; Week 12", "result": 7.0}, {"measurement": "TSAT, Mean", "setting": "[2]; Week 12", "result": 40.2}, {"measurement": "TSAT, Median", "setting": "[2]; Week 12", "result": 37.0}, {"measurement": "TSAT, Treatment Differences, LS Mean (KRX-0502) − LS Mean (control)", "setting": "[2]; Week 12", "result": 8.74}, {"measurement": "TSAT, LS Mean", "setting": "[2]; Week 24, ANCOVA", "result": 39.90}, {"measurement": "Mean TSAT", "setting": "[2]; Week 24, LOCF, Table D", "result": 40, "unit": "%"}, {"measurement": "TSAT, Change from Baseline, Mean", "setting": "[2]; Week 24", "result": 8.9}, {"measurement": "TSAT, Change from Baseline, Median", "setting": "[2]; Week 24", "result": 7.0}, {"measurement": "TSAT, Mean", "setting": "[2]; Week 24", "result": 39.9}, {"measurement": "TSAT, Median", "setting": "[2]; Week 24", "result": 38.0}, {"measurement": "TSAT, Treatment Differences, LS Mean (KRX-0502) − LS Mean (control)", "setting": "[2]; Week 24", "result": 8.28}, {"measurement": "TSAT, LS Mean", "setting": "[2]; Week 36, ANCOVA", "result": 39.80}, {"measurement": "Mean TSAT", "setting": "[2]; Week 36, LOCF, Table D", "result": 40, "unit": "%"}, {"measurement": "TSAT, Change from Baseline, Mean", "setting": "[2]; Week 36", "result": 8.8}, {"measurement": "TSAT, Change from Baseline, Median", "setting": "[2]; Week 36", "result": 7.0}, {"measurement": "TSAT, Mean", "setting": "[2]; Week 36", "result": 39.8}, {"measurement": "TSAT, Median", "setting": "[2]; Week 36", "result": 37.0}, {"measurement": "TSAT, Treatment Differences, LS Mean (KRX-0502) − LS Mean (control)", "setting": "[2]; Week 36", "result": 9.44}, {"measurement": "TSAT, LS Mean", "setting": "[2]; Week 48, ANCOVA", "result": 40.60}, {"measurement": "Mean TSAT", "setting": "[2]; Week 48, LOCF, Table D", "result": 41, "unit": "%"}, {"measurement": "TSAT, Change from Baseline, Mean", "setting": "[2]; Week 48", "result": 9.6}, {"measurement": "TSAT, Change from Baseline, Median", "setting": "[2]; Week 48", "result": 7.0}, {"measurement": "TSAT, Mean", "setting": "[2]; Week 48", "result": 40.6}, {"measurement": "TSAT, Median", "setting": "[2]; Week 48", "result": 38.0}, {"measurement": "TSAT, Treatment Differences, LS Mean (KRX-0502) − LS Mean (control)", "setting": "[2]; Week 48", "result": 11.17}, {"measurement": "TSAT, LS Mean", "setting": "[2]; Week 52, ANCOVA", "result": 39.35}, {"measurement": "Mean TSAT", "setting": "[2]; Week 52, LOCF, Table D", "result": 39, "unit": "%"}, {"measurement": "TSAT, Change from Baseline, Mean", "setting": "[2]; Week 52", "result": 8.3}, {"measurement": "TSAT, Change from Baseline, Median", "setting": "[2]; Week 52", "result": 6.0}, {"measurement": "TSAT, Mean", "setting": "[2]; Week 52", "result": 39.4}, {"measurement": "TSAT, Median", "setting": "[2]; Week 52", "result": 35.0}, {"measurement": "TSAT, Treatment Differences, LS Mean (KRX-0502) − LS Mean (control)", "setting": "[2]; Week 52", "result": 9.66}, {"measurement": "Mean TSAT, % Change from Baseline", "setting": "[2]; Week 52, relative change, Table D", "result": 25.8, "unit": "%"}, {"measurement": "Mean TSAT, Change from Baseline at Week 52", "setting": "[2]; absolute TSAT points, Table D", "result": 8, "unit": "%"}]}]}
